Counter-ions that a name gives are not always drawn.
Key:
h-Sortilin = target: T1, h-Sortilin (Homo sapiens, UniProt Q99523); assay: Neurotensin scintillation proximity assay (SPA); assay type: binding; details: displacement of 5 nM [3H]-Neurotensin, 150 nM 6his-Sortilin; average of at least 2 determinations
T1 sequence (Q99523 78-831): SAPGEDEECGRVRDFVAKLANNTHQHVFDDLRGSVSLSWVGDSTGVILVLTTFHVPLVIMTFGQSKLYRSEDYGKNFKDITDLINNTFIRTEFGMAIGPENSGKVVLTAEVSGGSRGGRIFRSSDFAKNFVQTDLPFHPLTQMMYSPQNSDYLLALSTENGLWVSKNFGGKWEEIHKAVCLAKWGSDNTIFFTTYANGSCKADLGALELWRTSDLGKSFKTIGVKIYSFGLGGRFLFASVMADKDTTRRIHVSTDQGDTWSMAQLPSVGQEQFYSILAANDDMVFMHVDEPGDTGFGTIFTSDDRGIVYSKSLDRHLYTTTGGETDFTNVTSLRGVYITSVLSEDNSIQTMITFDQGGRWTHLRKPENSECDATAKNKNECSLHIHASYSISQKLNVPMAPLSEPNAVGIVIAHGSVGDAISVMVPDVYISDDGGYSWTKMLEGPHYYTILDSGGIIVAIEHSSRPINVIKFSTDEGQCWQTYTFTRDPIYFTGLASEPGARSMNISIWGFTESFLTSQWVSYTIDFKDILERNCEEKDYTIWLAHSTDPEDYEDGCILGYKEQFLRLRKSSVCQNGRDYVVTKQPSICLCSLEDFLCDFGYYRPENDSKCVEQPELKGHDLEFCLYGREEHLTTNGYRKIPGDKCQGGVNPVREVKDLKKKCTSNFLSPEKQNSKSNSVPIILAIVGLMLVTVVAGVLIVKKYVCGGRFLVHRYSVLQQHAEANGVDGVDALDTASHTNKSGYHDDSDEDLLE
Method: NTS, which is a 13 amino acid neuropeptide, is a sortilin ligand. […] Compound affinity was determined by measuring the displacement of [^3H]-neurotensin binding to h-Sortilin in SPA format. Total volume of 40 µl in 50 mM HEPES pH 7.4 assay buffer containing 100 mM NaCl, 2.0 mM CaCl2, 0.1 % BSA and 0.1 % Tween-20. Compound pre-incubation for 30 minutes at room temperature with 150 nM of 6his-Sortilin before 5 nM [3H]-Neurotensin and Ni chelate imaging beads (Perkin Elmer) were added, after 6 hours the plate was read on a ViewLux with 360 s exposure time. Dose-response evaluation of compounds was performed with 8 concentrations of drugs (covering 3 decades). IC50 values were calculated by nonlinear regression using the sigmoid concentration-response (variable slope) using CDD Vault software. All values reported are average of at least 2 determinations.

Human (6-His)Sortilin = target: T2, Human (6-His)Sortilin (Homo sapiens, UniProt Q99523); assay: Human Sortilin GCI (Grating-Coupled Interferometry) binding assay; details: immobilised Human (6-His)Sortilin, Creoptix WAVE-RAPID, single concentration, 1:1 kinetic model; read-out: h-Sortilin GCI KD
T2 construct: purchased RnD Systems
T2 sequence (Q99523 78-831): T1 sequence (Q99523 78-831)

[1] = target: T3, Sortilin receptor at the cell surface (Homo sapiens, UniProt Q99523); assay: Progranulin cell surface engagement assay; assay type: cell-based; details: displacement of 100 nM PGRN-AF647, HEK293 engineered to express sortilin, on ice; average of at least 2 determinations
T3 construct: expressed in transfected cells; host or cells: HEK293
T3 sequence (Q99523 78-831): T1 sequence (Q99523 78-831)
Method: PGRN is a sortilin ligand.
Compound affinity was determined by measuring the ability of compounds to displace the binding of Progranulin-Alexa Fluor 647 (PGRN-AF647) binding to the Sortilin receptor at the cell surface. HEK293 engineered to express sortilin were pre-incubated with compound for 30 minutes on ice in 20 µl assay buffer containing 1% BSA in PBS. Dose-response evaluation of compounds was performed with 10 concentrations of drugs (10 point half log curve). PGRN-AF647 was added at 100 nM concentration in 20 µl assay buffer for 2 hours on ice. Data was acquired using iQue flow cytometer (IntelliCyt). IC50 values were calculated by nonlinear regression using the sigmoid concentration-response (variable slope) using CDD Vault software. All values reported are average of at least 2 determinations.

IC50 (h-Sortilin) [µM]	Kd (Human (6-His)Sortilin) [µM]	IC50 [1] [µM]	SMILES
4.02	–	–	COc1cccc(CNC(C)(CCC(C)(C)C)C(=O)O)c1 (racemic) [Example 4, 2-((3-methoxybenzyl)amino)-2,5,5-trimethylhexanoic acid hydrochloride]
9.74	–	–	CC(C)(C)CCC(C)(NCCCc1ccccc1)C(=O)O (racemic) [Example 9, 2,5,5-trimethyl-2-(3-phenylpropylamino)hexanoic acid]
2.97	0.393	–	CC(C)(C)CC[C@](C)(NCc1ccccc1)C(=O)O [Example 2, (S)-2-benzylamino-2,5,5-trimethylhexanoic acid]
2.5	0.621	–	CC(C)(C)CCC(C)(NCc1ccccc1)C(=O)O (racemic) [Example 1, rac-2-benzylamino-2,5,5-trimethylhexanoic acid]
0.84	4.22	–	CC(C)(C)CCC(C)(NCc1cncnc1)C(=O)O (racemic) [Example 8, 2,5,5-trimethyl-2-{[(5-pyrimidinyl)methyl]amino}hexanoic acid]
0.383	0.804	0.68	CC(C)(C)CC[C@](C)(NCc1cncnc1)C(=O)O (single isomer, unassigned) [Example 10]
1.33	–	–	COc1cccc(CN[C@@](C)(CCC(C)(C)C)C(=O)O)c1 [Example 5, (S)-2-((3-methoxybenzyl)amino)-2,5,5-trimethylhexanoic acid hydrochloride]
–	73.5	–	CC(C)(C)CCC(C)(NCc1cncnc1)C(=O)O (stereo not drawn) [Example 11]
–	1.27	–	COc1cccc(CNC(C)(CCC(C)C)C(=O)O)c1 (racemic) [Example 7, 2-{[(m-methoxyphenyl)methyl]amino}-2,5-dimethylhexanoic acid]
–	21.4	–	CC(C)(C)CC[C@@](C)(NCc1ccccc1)C(=O)O [Example 3, (R)-2-benzylamino-2,5,5-trimethylhexanoic acid]
